# Where “and” joins values, the source holds several entries; their conditions need not be identical. Equal values may be shown once. Marks after values point to notes of the source that are not given here.
# Tests used:
# diabetic wistar rat = assay: Example 2: ulcer area reduction in streptozocin-diabetized rats, subcutaneous route; type: in vivo; details: for percentage of area reduction of day 9 with respect to day 1: single ulcers
# Method: To perform the present embodiment, doses of 45 mg/kg of streptozocin (STZ) were administered by intramuscular route to make a batch of 8 rats diabetic (Andrades Ja et al. Engineering, expression, and renaturation of a collagen-targeted human bFGF fusion protein. Growth Factors. 2001; 18(4):261-75).
# Male wistar rats with a average weight of 250 g per rat were used, to which a dose of 11.25 mg STZ per rat was administered by means of the intramuscular administration of 100 μL in the left paw of each rat.
# Sweetened water (350 mg/dL) was administered to all the rats for three days and glucose measurements were performed with a glucometer every day to verify that the rats were indeed diabetized. For this reason, before the administration and at time 4 days after the administration of streptozocin, a drop of blood was extracted from the rat tail vein for the subsequent quantification of glycemia and see whether they were diabetic before starting the ulceration assay.
# Once the rats were diabetized, 2 ulcers with a diameter of 1 cm each were made on them using a scalpel. An anesthesia/analgesia protocol with ketamine/xylazine was followed according to the recommendations of the book: “Handbook of laboratory animal management and welfare”:
# The ulcers were treated with water and cleaned for 9 days after the ulceration.
# The administrations of bemiparin and of fondaparinux were performed by means of a bemiparin solution by subcutaneous route (100 μL) for the treatment of the ulcers.
# The diameter of the ulcer was quantified by means of tracing the ulcer onto a transparency to see the progress of the healing.
# Non-Diabetized Rats = assay: Wound healing by oral route in non-diabetized rats; type: in vivo, Wistar rat; details: for histopathological Grade / histopathological Score: sacrifice day 15, fondaparinux 10 mg/kg, bemiparin 100 mg/kg
# Method: (§1) Both treatments were administered by oral route at an administration volume of 10 mL/kg. In the case of fondaparinux, a dose of 10 mg/kg was administered and in the case of bemiparin, 100 mg/kg were administered.
# (§2) The control group only received the carrier used to prepare the assay product. The carrier for the preparation of the assay product is a 1.5% (w/v) bicarbonate solution in water for injections. It was verified that the pH of the formulations prepared was above 8.00.
# (§3) The animals were anesthetized (ketamine+xylazine, 90+10 mg/kg, i.m.). Their back was shaved and cleaned with disinfectant (povidone-iodine) and the area where the wound would be made was marked by means of a template to homogenize its position in all the animals.
# (§4) The wound was made by means of a circular incision with a diameter of approximately 1.5 cm, the skin of the mid-dorsal area being removed. 1 mL/animal of physiological serum was administered by i.p. route after the intervention. […]. Analgesia (paracetamol, 1 mg/mL) was provided in drinking water for the 7 days after the intervention.
# (§5) On the day after making the wound and for a total of 14 days, the assigned treatments were administered to the animals. The follow-up of the animals was performed, the evolution of the wounds being macroscopically assessed twice a week, by means of digital photography of the wound. The body weight of the animals was also recorded twice a week.
# (§6) On the day after the last administration, the animals were sacrificed with anesthesia overdose (pentobarbital sodium). The area where the wound was made was extracted. The front half was frozen in liquid nitrogen and stored in a freezer (−80±5° C.) and the rear half was stored in formol for its subsequent histological processing.
# (§7) The wound area was calculated as the percentage of reduction thereof to evaluate the degree of curing thereof, by means of the standardized formula: […]
# On the following day and for a total of 14 days, 10 mg/kg were administered to the animals by oral route.
# (§8) The follow-up of the animals was performed, the evolution of the wounds being macroscopically assessed twice a week, by means of digital photography of the wound. The body weight of the animals was also recorded twice a week.
# (§9) The animals were sacrificed on day 15 of the study and the area of the skin where the wound was caused was stored in formol to perform a histopathological evaluation (hematoxylin-eosin staining).
# Each section was given a histological score was given in the grade I to grade V range, where I means uncured wound and V means completely epithelialized wound. The score is based on the degree of cell invasion, the formation of granulation tissue, vascularization and epithelialization.
# diabetic rat wound model = assay: Wound healing by oral route in diabetic rat; type: in vivo, Wistar rat; details: 14 days; for histopathological Grade / histopathological Score: oral, sacrifice day 15, fondaparinux 10 mg/kg, bemiparin 100 mg/kg
# Method: as §1, §2
# At the beginning of the assay, diabetes mellitus was induced in all the animals. To that end, they received a single intraperitoneal injection of streptozotocin (60 mg/kg, 10 mL/kg). After 72 hours, the establishment of the diabetes was verified by analyzing the blood glucose levels. To that end, animals were anesthetized with isoflurane and 0.8 mL of blood were extracted from the retroorbicular plexus. The animals had to have values of glucose greater than 15 mmol/L. A week after the induction of the diabetes, the wound was made.
# as §3, §4, §5, §6, §7
# On the following day and for a total of 14 days, 10 mL/kg were administered to the animals by oral route.
# as §8, §9
# Each section was given a histological score in the grade I to grade V range, where I means uncured wound and V means completely epithelialized wound. The score is based on the degree of cell invasion, the formation of granulation tissue, […]
# [1] = tested on: C57BL/KsJ-db/db diabetic mouse; assay: Example 4: wound healing in genetically diabetic mouse, subcutaneous route; type: in vivo; details: for histopathological Grade / histopathological Score: sacrifice day 21, doses as in the 18th table
# Method: The genetically diabetic mouse develops resistance to insulin and hyperglycemia similar to those observed in adult diabetes. The total thickness wounds made in the back of these animals takes longer in forming the granulation tissue and in closing than the same wounds caused in non-diabetic animals.
# On the first day of the assay, the animals were anesthetized (ketamine+xylazine, 100+10 mg/kg, i.m.). The back of the animal was shaved, the area was cleaned with disinfectant and the location of the wound was marked by means of a template to make its position the same in all the animals.
# The wound was made by means of a circular incision with a diameter of approximately 1.5 cm, the skin of the mid-dorsal area being removed. A semipermeable dressing was subsequently placed on the wound. 1 mL/animal of physiological serum was administered by i.p. route after the intervention.
# as §7
# The measurement performed immediately after the intervention or incision was used as the baseline area. On the following day and for a total of 14 days, the assigned treatments were administered to the animals.
# On the following day and for a total of 14 days, 10 mL/kg were administered to the animals by subcutaneous route in the back of the animal, avoiding the area of the wound.
# The follow-up of the animals was performed up to a period of 21 days (average time necessary for the healing of the wounds in this animal model). The assessment was performed by means of digital photography of the wound and subsequent image analysis.
# The animals were sacrificed on day 21 of the study and the area of the skin where the wound was caused was stored in formol to perform a histopathological evaluation (hematoxylin-eosin staining).
# Each section was given a histological score in the grade 1 to grade V range, where I means uncured wound and V means completely epithelialized wound. The score is based on the degree of cell invasion, the formation of granulation tissue, vascularization and epithelialization.
# [2] = 108 IU rats, Batch 2, subcutaneous
# [3] = 217 IU rats, Batch 1, subcutaneous
# [4] = day 21, subcutaneous 14 days, fondaparinux 1 mg/kg, bemiparin 1000 IU Xa/kg
# [5] = Fondaparinux rats, Batch 3, 0.22 mg per rat, subcutaneous
compound,measurement,setting,value
Bemiparin,"percentage of area reduction of day 9 with respect to day 1, Average",diabetic wistar rat; [2],24.39 ± 7.47%
same,"percentage of area reduction of day 9 with respect to day 1, Average",diabetic wistar rat; [3],27.35 ± 7.25%
same,macroscopic healing process,"diabetic wistar rat; day 9 with respect to day 0, bemiparin 217 IU",macroscopically much better than in the case of fondaparinux
same,percentage of area reduction of day 9 with respect to day 1,diabetic wistar rat; [2],16.96% and 13.26% and 19.14% and 19.71%
same,percentage of area reduction of day 9 with respect to day 1,diabetic wistar rat; [3],29.31% and 31.85% and 28.40% and 24.89%
same,reduction of the ulceration area,"Non-Diabetized Rats; oral 100 mg/kg, 14 days",more or less to the same extent as the control animals
same,histopathological Grade,"Non-Diabetized Rats; oral, 14 days","III (7-9 Moderately thick granulation tissue. It can vary from being dominated by inflammatory cells to greater presence of fibroblasts and collagen deposition, extensive neovascularization, minimum to moderate epithelial migration.)"
same,histopathological Score,"Non-Diabetized Rats; oral, 14 days",9.0
same,scab formation,"Non-Diabetized Rats; oral, compared with fondaparinux",much more pronounced scab process
same,evolution of the wound area (FIG. 11),diabetic rat wound model; oral 100 mg/kg,heal much better than those treated with fondaparinux
same,histopathological Grade,diabetic rat wound model,"IV (10-12 Thick and vascular granulation tissue dominated by fibroblasts and extensive collagen deposition, the epithelium covers the wound partially or completely.)"
same,histopathological Score,diabetic rat wound model,11.3
same,percentage of healing of the wound,[1]; [4],complete curing
same,percentage of healing of the wound,"[1]; from day 18, subcutaneous 1000 IU Xa/kg",98%
same,day on which the wound closes,[1]; subcutaneous 1000 IU Xa/kg,18 days
same,histopathological Grade,[1]; subcutaneous 14 days,"IV (10-12 Thick and vascular granulation tissue dominated by fibroblasts and extensive collagen deposition, the epithelium covers the wound partially or completely.)"
same,histopathological Score,[1]; subcutaneous 14 days,11.5
same,"granulation tissue in the wound, macroscopic","[1]; subcutaneous, after the fifth day of treatment",a bed covered with granulation tissue
CO[C@H]1O[C@H](COS(=O)(=O)O)[C@@H](O[C@@H]2O[C@@H](C(=O)O)[C@@H](O[C@H]3O[C@H](COS(=O)(=O)O)[C@@H](O[C@@H]4O[C@H](C(=O)O)[C@@H](O[C@H]5O[C@H](COS(=O)(=O)O)[C@@H](O)[C@H](O)[C@H]5NS(=O)(=O)O)[C@H](O)[C@H]4O)[C@H](OS(=O)(=O)O)[C@H]3NS(=O)(=O)O)[C@H](O)[C@H]2OS(=O)(=O)O)[C@H](O)[C@H]1NS(=O)(=O)O [Fondaparinux],"percentage of area reduction of day 9 with respect to day 1, Average",diabetic wistar rat; [5],20.70%
same,percentage of area reduction of day 9 with respect to day 1,diabetic wistar rat; [5],17.00%* and 20.69% and 21.32% and 23.81%
same,histopathological Grade,"Non-Diabetized Rats; oral, 14 days","III (7-9 Moderately thick granulation tissue. It can vary from being dominated by inflammatory cells to greater presence of fibroblasts and collagen deposition, extensive neovascularization, minimum to moderate epithelial migration.)"
same,histopathological Score,"Non-Diabetized Rats; oral, 14 days",9.5
same,histopathological Grade,diabetic rat wound model,"III (7-9 Moderately thick granulation tissue. It can vary from being dominated by inflammatory cells to greater presence of fibroblasts and collagen deposition, extensive neovascularization, minimum to moderate epithelial migration.)"
same,histopathological Score,diabetic rat wound model,9.5
same,percentage of healing of the wound,[1]; [4],96%
same,histopathological Grade,[1]; subcutaneous 14 days,"III (7-9 Moderately thick granulation tissue. It can vary from being dominated by inflammatory cells to greater presence of fibroblasts and collagen deposition, extensive neovascularization, minimum to moderate epithelial migration.)"
same,histopathological Score,[1]; subcutaneous 14 days,7.2

# Reference: patent US9211305B2, “Pharmaceutical compositions with glycosaminoglycans and use thereof in the treatment of chronic ulcers” (LABORATORIOS FARMACEUTICOS ROVI S.A., priority 2008, dated 2015)
